Measurements taken from paper PMC4829233, “Identification of Novel Chemical Scaffolds Inhibiting Trypanothione Synthetase from Pathogenic Trypanosomatids” (PLoS Neglected Tropical Diseases, 2016).
Where “and” joins values, the source holds several entries; their conditions need not be identical. Identical values can stand only once. Like-named read-outs stand apart in the source and are kept apart here.

Legend:
[1] = system: TryS-RNAi T. b. brucei cell line; test: Cytotoxicity towards T. b. brucei with downregulated TryS expression
Procedure: The assay conditions to assess the cytotoxicity of compounds towards parasites and murine macrophages (cell line J774) are described in S1 Text. All assays were performed in duplicates or triplicates.
Total cell extracts from the WT and RNAi-TryS cell lines of T. b. brucei grown in the presence or absence of oxytetracycline were separated under reducing conditions on an SDS / 10% PAGE. The blotted membranes were incubated with mouse polyclonal antibodies against TbTryS (dilution 1:1000) followed by a horseradish peroxidase-conjugated anti-mouse IgG (dilution 1:10000). Reactive bands were detected by chemiluminescence using ECL plus (GE Healthcare) and quantified by densitometric analysis using the free software ImageJ (http://imagej.nih.gov/ij/).
The growth medium for WT and RNAi-TryS parasites was additionally supplemented with 0.2 µg/mL phleomycin and 2.5 µg/mL G418, and 5 µg/mL hygromycin only for the RNAi-TryS cell line. The RNAi of TryS was induced by adding 10 µg/mL oxytetracycline to the culture medium. […] Parasite viability was assessed in samples from cultures induced 48 h or not with oxytetracycline and grown in the presence and absence of compounds for 24 h, by manual cell counting (24-well culture plate) or flow cytometry (96-well culture plate).

[2] = target: LiTryS (Leishmania infantum trypanothione synthetase) (Leishmania infantum, UniProt A4I2Z3); test: biochemical; assay type: biochemical; details: for inhibition at 30 µM: read-out: % LiTryS inhibition ± 2σn-1; for IC50: read-out: LiTryS IC50 (estimated)
Chain of LiTryS (Leishmania infantum trypanothione synthetase) (A4I2Z3 1-652): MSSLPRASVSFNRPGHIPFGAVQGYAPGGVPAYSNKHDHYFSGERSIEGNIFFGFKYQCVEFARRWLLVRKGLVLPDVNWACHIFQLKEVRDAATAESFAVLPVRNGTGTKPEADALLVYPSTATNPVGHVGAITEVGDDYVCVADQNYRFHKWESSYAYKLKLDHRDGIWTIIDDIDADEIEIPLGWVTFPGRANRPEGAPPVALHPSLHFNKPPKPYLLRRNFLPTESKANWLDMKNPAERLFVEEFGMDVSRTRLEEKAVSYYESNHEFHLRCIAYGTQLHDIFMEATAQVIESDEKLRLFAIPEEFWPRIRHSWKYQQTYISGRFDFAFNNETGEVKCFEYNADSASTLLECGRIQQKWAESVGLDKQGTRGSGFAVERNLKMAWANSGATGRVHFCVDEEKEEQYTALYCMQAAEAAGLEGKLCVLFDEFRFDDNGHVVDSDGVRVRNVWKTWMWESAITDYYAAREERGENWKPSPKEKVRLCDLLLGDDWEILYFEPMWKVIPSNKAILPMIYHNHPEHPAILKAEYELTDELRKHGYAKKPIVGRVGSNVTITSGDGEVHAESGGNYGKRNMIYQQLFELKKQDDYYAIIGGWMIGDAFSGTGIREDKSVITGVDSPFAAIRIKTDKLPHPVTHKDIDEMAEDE

[3] = system: bloodstream Trypanosoma brucei brucei; test: Proliferation/cytotoxicity assay, infective T. b. brucei; assay type: cell-based; details: 24 h, read-out: T. b. Brucei EC50
[4] = target: TbTryS (Trypanosoma brucei trypanothione synthetase) (Trypanosoma brucei brucei, UniProt Q8IEX1); test: biochemical; details: for inhibition at 30 µM: read-out: % TbTryS inhibition ± 2σn-1
Chain of TbTryS (Trypanosoma brucei trypanothione synthetase) (Q8IEX1 1-627): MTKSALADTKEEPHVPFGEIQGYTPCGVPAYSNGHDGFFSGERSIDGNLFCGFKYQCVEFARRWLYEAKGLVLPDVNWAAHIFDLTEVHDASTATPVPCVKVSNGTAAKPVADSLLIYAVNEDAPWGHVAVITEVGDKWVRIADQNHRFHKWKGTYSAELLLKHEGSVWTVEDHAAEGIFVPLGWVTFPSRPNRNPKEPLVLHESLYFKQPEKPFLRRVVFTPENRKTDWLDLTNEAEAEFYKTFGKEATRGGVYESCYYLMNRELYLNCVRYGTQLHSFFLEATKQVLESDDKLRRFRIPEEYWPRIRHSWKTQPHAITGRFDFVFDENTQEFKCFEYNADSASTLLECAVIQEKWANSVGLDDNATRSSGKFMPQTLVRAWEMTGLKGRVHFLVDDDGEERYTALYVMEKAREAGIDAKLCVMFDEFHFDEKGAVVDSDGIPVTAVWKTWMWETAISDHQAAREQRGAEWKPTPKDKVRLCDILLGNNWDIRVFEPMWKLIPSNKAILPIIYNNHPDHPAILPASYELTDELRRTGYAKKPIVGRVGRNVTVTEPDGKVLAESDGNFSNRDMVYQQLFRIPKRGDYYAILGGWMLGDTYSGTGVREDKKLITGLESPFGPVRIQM

[5] = target: TcTryS (Trypanosoma cruzi trypanothione synthetase) (Trypanosoma cruzi, UniProt Q9GT49); test: biochemical; assay type: biochemical; details: for inhibition at 30 µM: read-out: % TcTryS inhibition ± 2σn-1; for remaining activity at 30 µM: read-out: TcTryS Activity ± 2σn-1 (%)
Chain of TcTryS (Trypanosoma cruzi trypanothione synthetase) (Q9GT49 whole entry): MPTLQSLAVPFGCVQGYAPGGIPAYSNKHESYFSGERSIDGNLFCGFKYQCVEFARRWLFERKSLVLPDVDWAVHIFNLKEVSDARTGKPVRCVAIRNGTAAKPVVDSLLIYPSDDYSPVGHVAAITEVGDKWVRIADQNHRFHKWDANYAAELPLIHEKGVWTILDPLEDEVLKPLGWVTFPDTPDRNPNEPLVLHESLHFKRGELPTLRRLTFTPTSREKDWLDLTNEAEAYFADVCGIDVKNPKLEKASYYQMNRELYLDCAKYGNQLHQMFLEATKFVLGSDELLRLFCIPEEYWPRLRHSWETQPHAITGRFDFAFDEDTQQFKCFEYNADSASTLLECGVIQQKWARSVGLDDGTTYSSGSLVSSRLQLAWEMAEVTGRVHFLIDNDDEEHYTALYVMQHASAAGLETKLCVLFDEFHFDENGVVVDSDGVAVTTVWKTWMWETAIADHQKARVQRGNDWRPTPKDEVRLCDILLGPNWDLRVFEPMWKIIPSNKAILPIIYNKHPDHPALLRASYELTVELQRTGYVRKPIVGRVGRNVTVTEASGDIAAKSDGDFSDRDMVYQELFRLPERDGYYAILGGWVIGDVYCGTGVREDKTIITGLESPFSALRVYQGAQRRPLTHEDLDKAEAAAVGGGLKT

[6] = system: bloodstream T. b. brucei WT; test: Analysis of intracellular thiols; assay type: cell-based, Trypanosoma brucei brucei; design: decrease of T(SH)2 content with respect to untreated cells: dose or concentration left out as unconfirmed
Procedure: The method is a modified version of that described in [62]. Briefly, L. infantum promastigotes or bloodstream T. b. brucei (WT and RNAi-TryS cell lines) treated or not with compounds (MOL2008 or EAP1-47, respectively) for 24 h were harvested by centrifugation (2000g, 10 min at 4°C), washed twice with PBS and resuspended at a density of 10^8 cells/0.1 mL of 40 mM Hepes pH 8.0 and 2 mM mono-bromobimane in methanol. After incubation at 70°C for 3 minutes, the samples were cooled on ice, then added of 100 μL 4 M methanesulfonic acid (adjusted to pH 1.5 with LiOH) and incubated overnight at 4°C. The supernatant containing the derivatized low molecular mass thiols was centrifuged at 13000g 40 min at 0°C.

NCCCCNCCCN = test: purified protein, by the assay type; details: other: LDH/PK assay, saturating co-substrates; pH 7.4
[7] = target: T1, T. cruzi trypanothione synthetase (TcTryS) (Trypanosoma cruzi, UniProt Q9GT49)
T1 sequence (Q9GT49 whole entry): as above

[8] = system: C. fasciculata trypanothione synthetase (CfTryS); design: method as in PMID 15537651; details: ref [23], cited from earlier work
[9] = target: L. infantum trypanothione synthetase (LiTryS) (Leishmania infantum, UniProt A4I2Z3); test: biochemical; assay type: biochemical
Chain of L. infantum trypanothione synthetase (LiTryS) (A4I2Z3 entry or part of it): as the sequence (A4I2Z3 1-652) above

[10] = target: T2, T. b. brucei trypanothione synthetase (TbTryS) (Trypanosoma brucei brucei, UniProt Q8IEX1); details: cited from earlier work
T2 sequence (Q8IEX1 entry or part of it): as the sequence (Q8IEX1 1-627) above

[11] = target: T. cruzi trypanothione synthetase (TcTryS); details: cited from earlier work
[12] = system: L. major trypanothione synthetase; design: method as in PMID 15610825; details: PK/LDH assay, ref [26], cited from earlier work
[13] = target: T2, T. b. brucei trypanothione synthetase (TbTryS); test: biochemical
[14] = target: T1, T. cruzi trypanothione synthetase (TcTryS); test: biochemical; details: apparent Ki GSH, TcTryS strain Tulahuen 0 (His-tagged), LDH/PK assay; substrate inhibition
[15] = system: Leishmania infantum promastigotes; test: Proliferation/cytotoxicity assay, L. infantum promastigotes; assay type: cell-based; details: 24 h
Procedure: All assays were performed in duplicates or triplicates.
Leishmania infantum promastigotes were cultured at 28 °C in RPMI 1640 Glutamax supplemented with 10% (v/v) FCS, 10 U ml^-1 penicillin, 10 µg ml^-1 streptomycin and 25 mM HEPES sodium salt pH 7.4. […] Twenty four hours later the number of living parasites was estimated by cell counting under the light microscope using a Neubauer chamber and viability calculated as percentage relative to cultures incubated with the vehicle alone.

[16] = T. b. brucei WT, EAP1-47 100 nM, 24 h

## CC(C)c1ccc(CNCCCCCCCCCCNCc2ccc(C(C)C)cc2)cc1 [EAP1-47, N^1,N^10-bis(4-isopropylbenzyl)decane-1,10-diamine]
[1]; 100 nM, tetracycline-induced 48 h, ± S.D., n = 2
  % cytotoxicity TryS-RNAi cells (treated vs. non-treated) induced: 98 ± 1%
[1]; 100 nM, ± S.D., n = 2
  % cytotoxicity TryS-RNAi cells (treated vs. non-treated) non-induced: 76 ± 4%
[1]; EAP1-47 100 nM, nifurtimox 5 μM, TryS content 1/3 of non-induced or WT
  increase of cytotoxic effect/potency towards TryS-depleted parasites: 1.3 fold
[2]
  LiTryS Activity ± 2σn-1 (%): halved
  inhibition at 30 µM: 50%
  IC50: ~30 µM
[3]
  EC50: 0.2 ± 0.02 µM
[4]
  IC50: ~30 µM
  TbTryS Activity ± 2σn-1 (%): halved
  inhibition at 30 µM: 50%
[5]
  TcTryS Activity ± 2σn-1 (%): halved
  inhibition at 30 µM: 50%
[6]; [16]
  GSH content: 8.2 nmol thiol x 5x10^7 cells^-1
  GSH content relative to non-treated cells: 139%
  T(SH)2 content: 4.5 nmol thiol x 5x10^7 cells^-1
  T(SH)2 content relative to non-treated cells: 72%
[6]; bloodstream T. b. brucei, 50 nM EAP1-47, 24 h
  increase of GSH level with respect to untreated cells: 39%
[6]; bloodstream T. b. brucei, EAP1-47, 24 h
  decrease of T(SH)2 content with respect to untreated cells: 28%

## T. cruzi trypanothione synthetase (TcTryS) (Trypanosoma cruzi strain CL Brener)
NCCCCNCCCN
  Km: 685 ± 105 µM and 702 ± 70 µM

## COc1cc(CNCCCCCCCCNCc2ccc(OCc3ccccc3)c(OC)c2)ccc1OCc1ccccc1 [APC1-111, N^1,N^8-bis(4-(benzyloxy)-3-methoxybenzyl)octane-1,8-diamine]
[2]
  LiTryS Activity ± 2σn-1 (%): halved
  inhibition at 30 µM: 49.6%
  IC50: ~30 µM
[3]
  EC50: 0.04 ± 0.001 µM
[4]
  IC50: ≤ 30 µM
  TbTryS Activity ± 2σn-1 (%): halved
  inhibition at 30 µM: 55.6%
[4]; read-out: TbTryS Activity ± 2σn-1 (%)
  activity at 30 µM: 44.4%
[5]
  inhibition at 30 µM: 28.9%
  remaining activity at 30 µM: 71.1%

## N[C@@H](CCC(=O)N[C@@H](CS)C(=O)NCC(=O)O)C(=O)O [GSH, glutathione]
[7]
  apparent Ki/KM GSH, T. cruzi TryS: 13.0
[8]; PK/LDH assay, read-out: apparent KM, C. fasciculata TryS (unknown strain)
  Km: 1180 µM
[8]
  Ki GSH, C. fasciculata TryS (unknown strain): Yes
[9]
  Ki: 699 ± 75 µM
  apparent Ki/KM GSH, L. infantum TryS: 4.1
[10]; read-out: KM reported for untagged TbTryS by different laboratories, ref [24], [27]
  Km: 23.8 to 56.2 µM
[10]; read-out: Ki GSH reported for untagged TbTryS by different laboratories, ref [24], [27]
  Ki: 36.5 to 143 µM
[10]; read-out: apparent KM, TbTryS strain 427, cell line 449, PK/LDH assay, ref [24]
  Km: 34 ± 4 µM
[10]; read-out: apparent KM, untagged TbTryS 427 (MITat1.4), PK/LDH coupled assay, ref [27]
  Km: 56.2 ± 10.7 µM
[10]; read-out: apparent KM, untagged TbTryS 427 (MITat1.4), end-point assay, ref [18]
  Km: 23.8 ± 2.3 µM
[10]; read-out: apparent Ki GSH, TbTryS strain 427, cell line 449, PK/LDH assay, ref [24]
  Ki: 143 ± 20 µM
[10]; read-out: apparent Ki GSH, untagged TbTryS 427 (MITat1.4), PK/LDH coupled assay, ref [27]
  Ki: 36.5 ± 6.7 µM
[10]; read-out: apparent Ki GSH, untagged TbTryS 427 (MITat1.4), end-point assay, ref [18]
  Ki: 55 ± 6 µM
[11]; No = lack of GSH inhibition at 4.5 mM, ref [22]
  Ki GSH, TcTryS strain Ninoa: No^f
[11]; PK/LDH assay, 37 °C, ref [22], read-out: apparent KM, TcTryS strain Ninoa
  Km: 760 ± 210 µM
[11]; PK/LDH assay, ref [25], read-out: apparent KM, TcTryS strain Silvio X10 clone 7
  Km: 570 ± 50 µM
[11]; read-out: apparent Ki GSH, TcTryS strain Silvio X10 clone 7, PK/LDH assay, ref [25]
  Ki: 1200 ± 100 µM
[12]; read-out: apparent KM, L. major Friedlin TryS
  Km: 89 ± 7 µM
[12]; read-out: apparent Ki GSH, L. major Friedlin TryS
  Ki: 1000 ± 80 µM
[13]
  apparent Ki/KM GSH, T. b. brucei TryS: 1.8
[13]; apparent Ki GSH, His-tagged TbTryS 427 (MITat1.4), LDH/PK assay, substrate inhibition
  Ki: 242 µM and 254 µM
[14]
  Ki: 1600 µM and 1690 µM

## COc1cc(CNCCCCNCc2ccc(OCc3ccccc3)c(OC)c2)ccc1OCc1ccccc1 [APC1-89]
[2]
  inhibition at 30 µM: 23.4%
[2]; read-out: LiTryS Activity ± 2σn-1 (%)
  activity at 30 µM: 76.6%
[3]
  EC50: 0.061 ± 0.001 µM
[4]
  IC50: ~30 µM
  inhibition at 30 µM: 50.9%
[5]
  inhibition at 30 µM: 25.6 ± 1.4%
  remaining activity at 30 µM: 74.4%

## Potassium antimonyl tartrate trihydrate [reference compound]
[15]
  EC50 of control drug, L. infantum promastigotes: 20 to 30 µg/mL
